# In ChEMBL document CHEMBL4130345, “Discovery of a series of dihydroquinoxalin-2(1H)-ones as selective BET inhibitors from a dual PLK1-BRD4 inhibitor” (Eur J Med Chem, 2017):
# How the values were obtained:
# [1] = target: Histone acetyltransferase p300 (Homo sapiens) (UniProt Q09472); test: Inhibition of human partial length EP300 (A1040 to G1161 residues) expressed in Escherichia coli BL21 assessed as residual activity at 1 uM after 1 hr by qPCR method relative to control
# [2] = Cmax in ICR (CD-1) mouse at 10 mg/kg, po; type: ADME, organism-based; parameters: dose 10 mg/kg, route oral; conditions: in vivo
# [3] = target: Bromodomain adjacent to zinc finger domain protein 2A (Homo sapiens) (UniProt Q9UIF9); test: Inhibition of human partial length BAZ2A (M1792 to L1905 residues) expressed in Escherichia coli BL21 assessed as residual activity at 1 uM after 1 hr by qPCR method relative to control
# [4] = target: Bromodomain-containing protein 2 (Homo sapiens) (UniProt P25440); test: Inhibition of human partial length BRD2 bromodomain 2 isoform 1 (E348 to D455 residues) expressed in Escherichia coli BL21 assessed as residual activity at 1 uM after 1 hr by qPCR method relative to control
# Chain of Bromodomain-containing protein 2 (Homo sapiens) (P25440 whole entry, looked up, the tested form may be a part, canonical isoform): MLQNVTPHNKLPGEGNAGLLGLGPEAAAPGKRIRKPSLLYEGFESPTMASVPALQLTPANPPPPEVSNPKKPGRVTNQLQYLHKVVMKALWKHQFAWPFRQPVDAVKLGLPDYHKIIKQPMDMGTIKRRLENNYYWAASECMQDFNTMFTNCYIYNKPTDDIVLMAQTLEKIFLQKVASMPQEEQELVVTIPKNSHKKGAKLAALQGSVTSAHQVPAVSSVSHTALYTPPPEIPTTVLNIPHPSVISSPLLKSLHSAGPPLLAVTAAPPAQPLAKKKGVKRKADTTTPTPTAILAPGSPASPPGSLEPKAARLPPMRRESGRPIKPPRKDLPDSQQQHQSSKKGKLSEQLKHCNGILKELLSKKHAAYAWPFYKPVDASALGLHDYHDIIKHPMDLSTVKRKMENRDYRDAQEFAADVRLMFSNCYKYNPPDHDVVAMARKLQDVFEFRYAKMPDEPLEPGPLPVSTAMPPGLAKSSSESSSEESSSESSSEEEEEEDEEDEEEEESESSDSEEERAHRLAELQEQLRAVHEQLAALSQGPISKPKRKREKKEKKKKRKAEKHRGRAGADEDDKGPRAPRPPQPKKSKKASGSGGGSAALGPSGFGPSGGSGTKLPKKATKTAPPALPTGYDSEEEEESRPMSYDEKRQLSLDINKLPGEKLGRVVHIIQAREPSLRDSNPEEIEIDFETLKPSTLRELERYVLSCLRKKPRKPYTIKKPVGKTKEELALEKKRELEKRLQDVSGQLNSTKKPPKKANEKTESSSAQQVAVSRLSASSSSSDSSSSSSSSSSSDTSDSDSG
# [5] = target: Bromodomain-containing protein 7 (Homo sapiens) (UniProt Q9NPI1); test: Inhibition of human partial length BRD7 (L125 to R254 residues) expressed in mammalian expression system assessed as residual activity at 1 uM after 1 hr by qPCR method relative to control
# Chain of Bromodomain-containing protein 7 (Homo sapiens) (Q9NPI1 whole entry, the tested form may be a part): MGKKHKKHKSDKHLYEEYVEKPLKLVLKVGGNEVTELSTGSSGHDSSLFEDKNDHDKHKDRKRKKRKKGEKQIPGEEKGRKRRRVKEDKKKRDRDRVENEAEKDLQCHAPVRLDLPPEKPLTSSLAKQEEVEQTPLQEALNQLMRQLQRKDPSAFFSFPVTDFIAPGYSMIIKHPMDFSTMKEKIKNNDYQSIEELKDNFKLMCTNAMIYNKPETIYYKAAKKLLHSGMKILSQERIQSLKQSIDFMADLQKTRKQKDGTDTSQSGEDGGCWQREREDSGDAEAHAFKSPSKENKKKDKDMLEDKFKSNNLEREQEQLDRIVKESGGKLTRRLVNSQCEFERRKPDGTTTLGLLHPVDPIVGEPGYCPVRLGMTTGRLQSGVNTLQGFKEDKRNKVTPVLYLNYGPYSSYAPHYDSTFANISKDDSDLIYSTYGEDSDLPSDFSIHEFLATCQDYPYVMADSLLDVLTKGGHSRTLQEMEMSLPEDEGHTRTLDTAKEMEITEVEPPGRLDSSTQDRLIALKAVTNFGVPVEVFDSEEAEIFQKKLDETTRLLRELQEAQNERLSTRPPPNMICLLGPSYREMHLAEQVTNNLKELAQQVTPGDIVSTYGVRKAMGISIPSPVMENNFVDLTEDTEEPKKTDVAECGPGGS
# [6] = Half life in ICR (CD-1) mouse at 10 mg/kg, po; type: ADME, organism-based; conditions: in vivo
# [7] = target: ATPase family AAA domain-containing protein 2B (Homo sapiens) (UniProt Q9ULI0); test: Inhibition of human partial length ATAD2B (Q955 to R1082 residues) expressed in Escherichia coli BL21 assessed as residual activity at 1 uM after 1 hr by qPCR method relative to control
# [8] = target: E3 ubiquitin-protein ligase TRIM33 (Homo sapiens) (UniProt Q9UPN9); test: Inhibition of human partial length TRIM33 (D882 to A1087 residues) expressed in Escherichia coli BL21 assessed as residual activity at 1 uM after 1 hr by qPCR method relative to control
# Chain of E3 ubiquitin-protein ligase TRIM33 (Homo sapiens) (Q9UPN9 whole entry, the tested form may be a part, canonical isoform): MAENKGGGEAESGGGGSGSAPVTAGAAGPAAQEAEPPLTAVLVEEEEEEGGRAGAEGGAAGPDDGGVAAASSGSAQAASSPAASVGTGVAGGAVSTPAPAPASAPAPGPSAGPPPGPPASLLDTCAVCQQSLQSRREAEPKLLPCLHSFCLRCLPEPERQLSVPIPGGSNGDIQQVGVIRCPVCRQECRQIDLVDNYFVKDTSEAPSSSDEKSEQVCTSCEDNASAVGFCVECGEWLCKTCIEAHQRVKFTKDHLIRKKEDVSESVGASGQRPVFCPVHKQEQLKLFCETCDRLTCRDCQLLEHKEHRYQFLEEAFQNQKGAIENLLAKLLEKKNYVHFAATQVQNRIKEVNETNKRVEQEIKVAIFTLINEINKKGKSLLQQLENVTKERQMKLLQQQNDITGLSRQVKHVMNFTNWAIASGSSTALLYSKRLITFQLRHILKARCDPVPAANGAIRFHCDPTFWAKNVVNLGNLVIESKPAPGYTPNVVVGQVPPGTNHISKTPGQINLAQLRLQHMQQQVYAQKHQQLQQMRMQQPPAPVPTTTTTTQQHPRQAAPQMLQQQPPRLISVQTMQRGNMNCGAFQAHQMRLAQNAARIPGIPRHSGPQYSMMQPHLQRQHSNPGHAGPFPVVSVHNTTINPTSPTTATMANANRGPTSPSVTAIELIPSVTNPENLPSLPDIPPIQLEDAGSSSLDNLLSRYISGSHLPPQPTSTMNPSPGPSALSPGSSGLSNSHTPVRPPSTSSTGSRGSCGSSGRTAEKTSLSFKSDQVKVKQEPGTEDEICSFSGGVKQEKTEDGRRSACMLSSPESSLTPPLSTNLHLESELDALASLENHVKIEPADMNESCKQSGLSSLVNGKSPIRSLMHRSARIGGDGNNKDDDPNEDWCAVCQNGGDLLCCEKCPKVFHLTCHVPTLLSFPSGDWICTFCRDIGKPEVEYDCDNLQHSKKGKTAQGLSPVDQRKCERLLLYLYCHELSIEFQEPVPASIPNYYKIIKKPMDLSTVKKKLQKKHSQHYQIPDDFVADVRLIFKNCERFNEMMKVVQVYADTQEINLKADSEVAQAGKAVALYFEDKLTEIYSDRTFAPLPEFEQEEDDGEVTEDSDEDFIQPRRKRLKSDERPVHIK
# [9] = target: Bromodomain-containing protein 2 (Homo sapiens) (UniProt P25440); test: Inhibition of human partial length BRD2 bromodomain 1 long isoform (K71 to N194 residues) expressed in Escherichia coli BL21 assessed as residual activity at 1 uM after 1 hr by qPCR method relative to control
# [10] = target: T1, Bromodomain-containing protein 4 (Homo sapiens, UniProt O60885); test: Inhibition of human partial length BRD4 bromodomain 2 long isoform (K333 to E460 residues) expressed in Escherichia coli BL21 assessed as residual activity at 1 uM after 1 hr by qPCR method relative to control
# [11] = Plasma concentration in ICR (CD-1) mouse at 10 mg/kg, po after 24 hrs; type: ADME, organism-based
# [12] = target: Histone acetyltransferase KAT2B (Homo sapiens) (UniProt Q92831); test: Inhibition of human partial length PCAF (G715 to D831 residues) expressed in Escherichia coli BL21 assessed as residual activity at 1 uM after 1 hr by qPCR method relative to control
# [13] = target: T1, Bromodomain-containing protein 4; test: Inhibition of JQ1-FITC binding to His6-tagged BRD4-BD1 (unknown origin) expressed in Escherichia coli BL21 (DE3)-codon plus-RIL cells incubated in dark for 4 hrs by fluorescence anisotropy assay
# [14] = target: CREB-binding protein (Homo sapiens) (UniProt Q92793); test: Inhibition of human partial length CREBBP (R1081 to G1197 residues) expressed in Escherichia coli BL21 assessed as residual activity at 1 uM after 1 hr by qPCR method relative to control
# [15] = target: Transcription initiation factor TFIID subunit 1-like (Homo sapiens) (UniProt Q8IZX4); test: Inhibition of human partial length TAF1L bromodomain 2 (Q1523 to D1654 residues) expressed in Escherichia coli BL21 assessed as residual activity at 1 uM after 1 hr by qPCR method relative to control
# [16] = target: Bromodomain and WD repeat-containing protein 1 (Homo sapiens) (UniProt Q9NSI6); test: Inhibition of human partial length BRWD1 (A1310 to E1430 residues) expressed in Escherichia coli BL21 assessed as residual activity at 1 uM after 1 hr by qPCR method relative to control
# Chain of Histone acetyltransferase p300 (Homo sapiens) (Q09472 whole entry, the tested form may be a part): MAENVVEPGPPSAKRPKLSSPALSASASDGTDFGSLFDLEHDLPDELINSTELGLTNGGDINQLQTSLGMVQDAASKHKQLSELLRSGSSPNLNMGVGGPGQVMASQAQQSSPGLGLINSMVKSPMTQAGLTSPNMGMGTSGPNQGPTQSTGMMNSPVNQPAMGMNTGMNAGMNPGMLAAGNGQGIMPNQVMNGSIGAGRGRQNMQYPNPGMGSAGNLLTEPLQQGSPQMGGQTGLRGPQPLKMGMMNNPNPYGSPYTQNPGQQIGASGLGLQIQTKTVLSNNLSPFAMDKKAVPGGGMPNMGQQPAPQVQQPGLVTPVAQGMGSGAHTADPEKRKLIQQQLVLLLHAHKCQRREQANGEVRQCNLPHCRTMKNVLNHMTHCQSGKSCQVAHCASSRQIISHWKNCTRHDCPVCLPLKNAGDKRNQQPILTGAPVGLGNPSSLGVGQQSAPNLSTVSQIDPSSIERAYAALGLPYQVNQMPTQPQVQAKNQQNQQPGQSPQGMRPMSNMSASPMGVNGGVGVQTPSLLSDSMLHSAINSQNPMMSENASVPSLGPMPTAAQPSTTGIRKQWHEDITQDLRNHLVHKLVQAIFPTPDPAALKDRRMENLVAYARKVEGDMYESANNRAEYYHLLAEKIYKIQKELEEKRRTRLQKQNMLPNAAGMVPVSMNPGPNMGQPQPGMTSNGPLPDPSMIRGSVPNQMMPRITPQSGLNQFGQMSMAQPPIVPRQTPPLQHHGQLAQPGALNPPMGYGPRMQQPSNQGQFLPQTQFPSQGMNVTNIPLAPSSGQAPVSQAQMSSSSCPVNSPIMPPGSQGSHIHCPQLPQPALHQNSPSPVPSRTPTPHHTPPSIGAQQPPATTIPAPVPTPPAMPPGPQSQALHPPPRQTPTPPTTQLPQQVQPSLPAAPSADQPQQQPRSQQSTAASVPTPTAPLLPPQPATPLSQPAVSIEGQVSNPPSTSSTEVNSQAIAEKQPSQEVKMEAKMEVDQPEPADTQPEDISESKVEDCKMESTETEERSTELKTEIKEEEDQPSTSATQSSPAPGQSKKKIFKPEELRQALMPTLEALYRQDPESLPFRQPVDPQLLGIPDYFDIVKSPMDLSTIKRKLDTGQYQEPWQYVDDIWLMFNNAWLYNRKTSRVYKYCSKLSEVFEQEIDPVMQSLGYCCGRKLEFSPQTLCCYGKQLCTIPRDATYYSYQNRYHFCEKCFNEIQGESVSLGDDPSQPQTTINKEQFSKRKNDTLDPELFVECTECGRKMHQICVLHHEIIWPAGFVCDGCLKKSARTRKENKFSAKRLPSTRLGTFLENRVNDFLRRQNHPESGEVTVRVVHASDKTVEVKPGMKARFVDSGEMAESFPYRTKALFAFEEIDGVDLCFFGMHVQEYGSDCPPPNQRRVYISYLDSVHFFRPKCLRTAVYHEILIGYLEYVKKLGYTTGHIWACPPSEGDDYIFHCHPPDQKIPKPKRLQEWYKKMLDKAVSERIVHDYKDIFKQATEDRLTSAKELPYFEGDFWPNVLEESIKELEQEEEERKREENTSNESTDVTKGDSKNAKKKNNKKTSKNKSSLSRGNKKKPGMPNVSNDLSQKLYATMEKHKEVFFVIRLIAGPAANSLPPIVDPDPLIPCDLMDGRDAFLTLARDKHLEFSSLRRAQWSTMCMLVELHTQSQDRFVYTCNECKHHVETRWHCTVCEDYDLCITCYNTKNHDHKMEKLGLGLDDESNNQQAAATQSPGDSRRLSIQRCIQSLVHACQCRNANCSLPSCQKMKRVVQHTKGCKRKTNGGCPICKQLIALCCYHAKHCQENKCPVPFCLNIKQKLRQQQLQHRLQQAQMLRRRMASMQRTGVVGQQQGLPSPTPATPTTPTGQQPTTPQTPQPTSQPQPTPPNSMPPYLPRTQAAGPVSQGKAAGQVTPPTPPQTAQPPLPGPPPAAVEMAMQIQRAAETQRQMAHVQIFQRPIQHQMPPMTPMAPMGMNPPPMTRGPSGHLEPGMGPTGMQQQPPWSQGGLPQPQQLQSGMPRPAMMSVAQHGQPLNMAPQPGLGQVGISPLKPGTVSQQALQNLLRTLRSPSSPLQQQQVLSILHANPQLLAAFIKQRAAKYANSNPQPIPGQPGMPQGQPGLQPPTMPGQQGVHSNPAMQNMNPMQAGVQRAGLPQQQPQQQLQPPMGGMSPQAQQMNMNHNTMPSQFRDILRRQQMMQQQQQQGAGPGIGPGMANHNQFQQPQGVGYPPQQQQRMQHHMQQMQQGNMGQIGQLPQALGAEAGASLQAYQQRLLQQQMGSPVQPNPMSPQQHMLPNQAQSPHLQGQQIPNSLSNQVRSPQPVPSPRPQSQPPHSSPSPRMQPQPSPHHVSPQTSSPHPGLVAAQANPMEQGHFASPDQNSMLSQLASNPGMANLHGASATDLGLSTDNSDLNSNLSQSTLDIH
smiles,measurement,setting,value
Cc1ccc([C@H](C)Nc2ccc3c(c2)N(C2CC2)[C@H](C)C(=O)N3C)c(C)c1,Activity,[1],47%
same,Cmax,[2],869 ng/mL
same,Activity,[3],83%
same,Activity,[4],0%
same,Activity,[5],97%
same,half-life,[6],2.23 h
same,Activity,[7],100%
same,Activity,[8],99%
same,Activity,[9],0.9%
same,Activity,[10],0.05%
same,concentration at 24 h,[11],< 0.3 ng/mL
same,Activity,[12],96%
same,IC50,[13],45 nM
same,Activity,[14],67%
same,Activity,[15],88%
same,Activity,[16],73%
